Experimental data reported in patent publication US20260263596A1, “Programming B Cells to Produce IL-27 to Treat Inflammatory Diseases” (Board of Regents, The University of Texas System, priority 2022, published 2026).
“Also recorded” adds a separate entry of the source.

Experiments:
B cells [1] = assay: IL-27 induction in B cells by innate priming followed by CD154 or αCD40 plus IL-21; assay type: cell-based, mouse; conditions: then CD154 or αCD40 plus IL-21; for IL-27 secretion / IL-27 induction by primed B cells: priming with CDN, compared with gold-standard LPS priming; for priming of B cells for induction of Il27p28 and Ebi3: 30 μg/ml for 4 h
STING [2] = conditions: cited from earlier work
STING [3] = biological target: STING (Homo sapiens, UniProt Q86WV6); conditions: relative to c-di-GMP; cited from earlier work
STING (Homo sapiens, UniProt Q86WV6), sequence (Q86WV6 whole entry H232R, species assumed): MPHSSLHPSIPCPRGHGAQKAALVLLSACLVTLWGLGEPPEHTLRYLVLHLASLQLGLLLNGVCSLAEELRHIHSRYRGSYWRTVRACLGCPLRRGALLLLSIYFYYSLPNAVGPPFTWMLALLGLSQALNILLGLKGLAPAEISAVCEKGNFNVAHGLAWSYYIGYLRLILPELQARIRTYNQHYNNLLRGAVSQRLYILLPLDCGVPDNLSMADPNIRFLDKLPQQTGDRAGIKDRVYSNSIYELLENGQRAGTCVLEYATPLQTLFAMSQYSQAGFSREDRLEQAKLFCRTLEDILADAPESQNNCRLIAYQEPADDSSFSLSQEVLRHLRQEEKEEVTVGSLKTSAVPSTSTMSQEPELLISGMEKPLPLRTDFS

ILC3s = assay: IL-27 stimulation of in vitro amplified ILC3s, FACS; assay type: cell-based, C57 mice
Source text: FIG. 5A-5C. […] ILC3s were sort enriched (70%) by surface markers (IL-7R+CD45+Lin−CD117+ST2−) from mesenteric lymph nodes and cultured in the presence of IL-2 and IL-7 (to promote ILC survival) as well as IL-1B plus IL-23 (to promote ILC3 proliferation)—CD117 and ST2 are preferentially, albeit not exclusively, expressed by ILC3s and ILC2s, respectively. After 7 d of culture, ILCs were amplified by >10-fold and accounted for >95% of all cells. After washing to remove cytokines, ILC3s were stimulated with nil, IL-1P/IL-23 (to promote basal IL-22 expression in ILC3s) or IL-27 for 12 h. Cells were analyzed by FACS for expression of (A) T-bet, NKp46 and (B) IL-22, IL-17A and IFNγ, as quantified in (C).
Analyze the impact of recombinant IL-27 (in vitro) and B-27 cells (in vivo) on ILC3 gene protein expression. Tg(Rorc-cre)34 (JAX #022791) and Rosa26fl-STOP-fl-EYFP (JAX #006148) mice will be crossed to generate TgRorc-creRosa26fl-STOP-fl-EYFP mice, which will allow us to sort purify EYFP+IL-7R+CD45+Lin−CD117+ST2−ILC3s. Sorted ILC3s will be cultured in the presence of IL-7 and IL-2, which promote ILC survival, and stimulated them with recombinant IL-27 for 0 h, 6 h, 12 h and 24 h.

B cells [4] = conditions: cited from earlier work
[5] = system: STAT transcription factors; assay: STAT activation by human IL-27; assay type: cell-based
[6] = enriched, in vitro amplified ILC3s from C57 mice, 12 h

Molecule: Nc1nc2c(ncn2[C@@H]2O[C@H](CO)[C@@H](O)[C@H]2OP(=O)(O)OC[C@H]2O[C@@H](n3cnc4c(N)ncnc43)[C@H](O)[C@@H]2OP(=O)(O)O)c(=O)[nH]1 [2′5′-GpAp, linear GMP-AMP]
- IL-27 secretion / IL-27 induction by primed B cells (B cells [1]): inefficient
- STING activation (STING [2]): does not activate STING

Molecule: Nc1ncnc2c1ncn2[C@@H]1O[C@@H]2COP(=O)(O)O[C@H]3[C@@H](O)[C@H](n4cnc5c(N)ncnc54)O[C@@H]3COP(=O)(O)O[C@H]2[C@H]1O [c-di-AMP, 3′-5′ c-di-AMP]
- IL-27 secretion / IL-27 induction by primed B cells (B cells [1]): inefficient
- affinity to STING (STING [3]): much lower affinity to STING than c-di-GMP

Molecule: Nc1nc2c(ncn2[C@@H]2O[C@@H]3COP(=O)(O)O[C@H]4[C@@H](O)[C@H](n5cnc6c(=O)[nH]c(N)nc65)O[C@@H]4COP(=O)(O)O[C@H]3[C@H]2O)c(=O)[nH]1 [c-di-GMP, 3′-5′ c-di-GMP]
- priming of B cells for induction of Il27p28 and Ebi3 (B cells [1]): sufficient
- IL-27 secretion / IL-27 induction by primed B cells (B cells [1]): at the same magnitude as those of IL-27 induced by the gold-standard condition

Molecule: cyclic GMP-AMP [cGAMP]
- priming of B cells for induction of Il27p28 and Ebi3 (B cells [1]): sufficient
- IL-27 secretion / IL-27 induction by primed B cells (B cells [1]): prime B cells for IL-27 induction by CD154; also recorded: at the same magnitude as those of IL-27 induced by the gold-standard condition

B1: IL-27: pleiotropic cytokine, heterodimer of IL-27p28 and EBI3 (protein, UniProt Q8NEV9 29-243; Q14213 21-229, looked up)
Interleukin-27 subunit alpha: FPRPPGRPQLSLQELRREFTVSLHLARKLLSEVRGQAHRFAESHLPGVNLYLLPLGEQLPDVSLTFQAWRRLSDPERLCFISTTLQPFHALLGGLGTQGRWTNMERMQLWAMRLDLRDLQRHLRFQVLAAGFNLPEEEEEEEEEEEEERKGLLPGALGSALQGPAQVSWPQLLSTYRLLHSLELVLSRAVRELLLLSKAGHSVWPLGFPTLSPQP
Interleukin-27 subunit beta: RKGPPAALTLPRVQCRASRYPIAVDCSWTLPPAPNSTSPVSFIATYRLGMAARGHSWPCLQQTPTSTSCTITDVQLFSMAPYVLNVTAVHPWGSSSSFVPFITEHIIKPDPPEGVRLSPLAERQLQVQWEPPGSWPFPEIFSLKYWIRYKRQGAARFHRVGPIEATSFILRAVRPRARYYVQVAAQDLTDYGELSDWSLPATATMSLGK
- IFNγ in ILC3s (ILC3s; [6]): did not affect
- IL-17 in ILC3s (ILC3s; [6]): reduced
- expression of IL-22 in ILC3s (ILC3s; [6]): upregulated
- expression of T-bet in ILC3s (ILC3s; [6]): upregulated
- polarization of ILC3s to express T-bet and IL-22 (ILC3s; in vitro): polarizes ILC3s to express T-bet and IL-22; also recorded: can polarize ILC3s in vitro to express T-bet and IL-22
- STAT1/STAT3 activation, T-bet expression and IFNγ gene signature in B cells (B cells [4]): induce STAT1/STAT3 activation, T-bet expression, and IFNγ gene signature

B2: human IL-27: human cytokine IL-27 (protein, UniProt Q8NEV9 29-243; Q14213 21-229, looked up)
Interleukin-27 subunit alpha: B1 Interleukin-27 subunit alpha
Interleukin-27 subunit beta: B1 Interleukin-27 subunit beta
- activation of STAT transcription factors [5]: can activate STAT transcription factors
